Measurements from PMC4841555, “Optimization of the All-D Peptide D3 for Aβ Oligomer Elimination” (PLoS ONE, 2016).
“And” between values parts separate entries of the source, which are not always exact repeats. Equal values may be shown once. Non-standard residues stand in square brackets, D forms with d. Residues, ends and D or L forms follow the SMILES beside them.

Assays:
PC12 cells = experiment: MTT cell viability assay; type: cell-based, rat; settings: 5 μM peptide without Aβ, 24 h
Procedure: Rat pheochromocytoma PC12 cells (Leibniz Institute DSMZ, Braunschweig, Germany) were cultivated in DMEM medium supplemented with 10% fetal bovine serum and 5% horse serum. 10,000 cells per well were seeded on collagen-coated 96 well plates (Gibco, Life technology, Carlsberg, USA) and incubated in a 95% humidified atmosphere with 5% CO2 at 37°C for 24 h. […] DB peptide was then added at different concentrations and incubated for further 40 min at 21°C and 600 rpm agitation before addition to the PC12 cells. […] Cell viability was then measured using the Cell proliferation Kit I (MTT) (Roche, Basel, Switzerland) according to the manufacturer’s instruction. The absorbance of the formazan product was determined by measuring at 570 nm after subtracting the absorption at 660 nm. For absorption measurements, a Polarstar Optima plate reader (BMG, Offenburg, Germany) was used. All results were normalized to cells that were treated with buffer only.
The cell viability assay was performed using PC12 cells in a MTT test. […] The absorption of buffer treated cells was set to 100% cell viability. […] The Mann-Whitney-U-test was used for statistical analysis. * p < 0.05; ** p < 0.01; *** p < 0.001.

Aβ(1–42) [1] = molecular target: T1, Aβ(1–42) (Homo sapiens, UniProt P05067); experiment: Aβ aggregation inhibition ELISA; type: biochemical; settings: 400 nM Aβ(1–42), 500 mM Tris pH 7.4, 23 h, 37°C, aggregate-specific ELISA, logistic fit, three independent experiments; read-out: EC50 of inhibition of Aβ aggregate formation
T1 construct: Aβ(1–42), N-terminally biotinylated Aβ(1–42) and FITC-Aβ(1–42) were purchased from Bachem; purchased Bachem (Heidelberg, Germany)
T1 sequence (P05067 672-713 limits assumed): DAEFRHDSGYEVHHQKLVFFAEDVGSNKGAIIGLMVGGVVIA
Procedure: Freshly dissolved monomeric Aβ(1–42) (400 nM in 500 mM Tris-buffer pH 7.4) was incubated with and without DB peptides in different concentrations (0.01, 0.05, 0.1, 0.5, 1, 5, 10, 50 and 100 μM for DB3 or half of the molar concentrations in case of DB3DB3) in a humidity chamber for 23 h at 37°C. The aggregation was analyzed by an enzyme-linked immunosorbent assay (ELISA). NP27 antibody in bicarbonate/carbonate buffer was used to coat the ELISA plate overnight. Then the plate was washed in PBS-Tween buffer (1x PBS + 0.05% Tween) and blocked for 2 h at room temperature with 5% casein buffer. After washing, Aβ aggregate solutions were added to the plate and incubated for 1 h at room temperature. The plate was washed again and bound Aβ aggregates were detected by biotinylated 6E10/HRP-avidin mediated immunoreaction (BioLegend, San Diego, CA USA) using TMB as detection reagent. […] Mean value and standard error were calculated from three independent experiments. EC50 was calculated by fitting the data to a logistic dose response function.
Fig 5 Inhibition of Aβ fibril formation and Aβ aggregation disassemble by DB3 and DB3DB3. A) Monomeric Aβ(1–42) (400 nM) was mixed with different concentrations of DB3 (0.01, 0.05, 0.1, 0.5, 1, 5, 10, 50, 100 μM) and the aggregation state of Aβ was analyzed using an Aβ aggregate specific ELISA. […] All data were determined in triplicate. […]

Aβ(1–42) oligomers = molecular target: T2, Aβ(1–42) oligomers (Homo sapiens, UniProt P05067); experiment: QIAD assay (Aβ oligomer elimination); type: biochemical; settings: 10 μM DB3DB3, 80 μM Aβ(1–42) preincubated 4.5 h, 40 min with peptide, density gradient centrifugation, RP-HPLC, triplicate
T2 construct: Aβ(1–42), N-terminally biotinylated Aβ(1–42) and FITC-Aβ(1–42) were purchased from Bachem; purchased Bachem (Heidelberg, Germany)
T2 sequence (P05067 672-713 limits assumed): as above
Procedure: The quantitative determination of interference with Aβ(1–42) aggregate size distribution (QIAD) was performed as described before. In brief, 80 μM Aβ(1–42) was incubated in 10 mM sodium phosphate buffer, pH 7.4 for 4.5 h at 22°C with 600 rpm agitation. Aβ(1–42) aggregation was continued for an additional 40 min with or without DB peptide. The obtained partial size distribution was analyzed by applying density gradient centrifugation. 100 μl of the incubated sample was placed on top of a gradient with 5 to 50% iodixanol (Optiprep, Axis-shield, Oslo, Norway) and separated at 259.000 x g for 3 h at 4°C using an ultracentrifuge (Optima MAX-XP, Beckman Coulter, Brea, USA). Fourteen fractions of 140 μl were taken from top to bottom. […] For quantification of the Aβ(1–42) amount in each fraction, reversed-phase high performance liquid chromatography (RP-HPLC) was performed using a Zorbax SB-300 C8 column (Agilent, Böblingen, Germany) connected to an Agilent 1260 Infinity system using 30% (v/v) acetonitrile with 0.1% (v/v) trifluoroacetic acid (TFA) as the mobile phase with a flow of 1 ml/min and a column temperature of 80°C. […] The UV absorption at 214 nm was measured. For quantification of the Aβ(1–42) amount, the area under the peak representing Aβ(1–42) was calculated and the molar concentration was determined using a calibration curve. […]

[2] = molecular target: T3, preformed Aβ(1–42) aggregates (Homo sapiens, UniProt P05067); experiment: Aβ aggregate disassembly ELISA; type: biochemical
T3 construct: Aβ(1–42), N-terminally biotinylated Aβ(1–42) and FITC-Aβ(1–42) were purchased from Bachem; purchased Bachem (Heidelberg, Germany)
T3 sequence (P05067 672-713 limits assumed): as above
Procedure: Freshly dissolved monomeric Aβ(1–42) (400 nM in 500 mM Tris-buffer pH 7.4) was incubated in a humidity chamber for 22 h at 37°C in order to preform Aβ(1–42) aggregates. These preformed aggregates were coincubated with D-peptide in different concentrations (0.01, 0.05, 0.1, 0.5, 1, 5, 10, 50, 100 μM for DB3 or with half of the molar concentrations in case of DB3DB3) for additional 22 h at 37°C. The content of Aβ aggregates was measured and evaluated in the same way as the aggregation inhibition ELISA.
Fig 5 Inhibition of Aβ fibril formation and Aβ aggregation disassemble by DB3 and DB3DB3. A) Monomeric Aβ(1–42) (400 nM) was mixed with different concentrations of DB3 (0.01, 0.05, 0.1, 0.5, 1, 5, 10, 50, 100 μM) and the aggregation state of Aβ was analyzed using an Aβ aggregate specific ELISA. For DB3DB3 half of the molar concentrations compared to DB3 were used. Aβ without DB3 and DB3DB3 addition was taken as control. For DB3 an EC50 of 6 μM was calculated using a logistic fit model. DB3DB3 inhibited the formation of Aβ fibrils more efficiently with an EC50 of 7 nM. B) The disassembly properties of DB3 and DB3DB3 were measured using an Aβ aggregation specific ELISA. Monomeric Aβ(1–42) (400 nM) was preincubated in order to form fibrils and mixed with nine different concentrations of DB3 (0.01, 0.05, 0.1, 0.5, 1, 5, 10, 50, 100 μM). For DB3DB3, the molar concentrations were half those used for DB3. […] DB3DB3 disassembled Aβ aggregates at the lowest concentration […]. Thus, the EC50 could not be determined, but is < 10 nM. All data were determined in triplicate. The Mann-Whitney-U-test was performed for statistical analysis. * p< 0.05; ** p < 0.01; *** p < 0.001
The Aβ aggregate disassembly ELISA was used to analyze the effect of DB3 and DB3DB3 on preformed Aβ aggregates (Fig 5B). […] The Aβ aggregates specific ELISA was used to quantify Aβ aggregates. […] The results of measured Aβ aggregates normalized to the Aβ control were plotted against the peptide concentration. The EC50 was calculated by a logarithmic dose response function.

Aβ(1–42) [3] = molecular target: T1, Aβ(1–42); experiment: Thioflavin T (ThT) fibril formation assay; type: biochemical; settings: 20 μM Aβ(1–42), 20 μM peptide (method: 31 μg/ml), 20 μM ThT, 10 mM sodium phosphate pH 7.4, 37°C, compared after 5 h with Aβ(1–42)-only control
Procedure: 20 μM Aβ(1–42) was mixed with 20 μM Thioflavin T (ThT) and 31 μg/ml DB3 or DB3DB3 in 10 mM sodium phosphate buffer, pH 7.4. The assay was performed using a non-binding 96 well plate (Greiner Bio-One, Frickenhausen, Germany). ThT fluorescence was measured every 15 min at λex = 440 nm and λem = 490 nm in a temperature-controlled plate reader (Polarstar Optima, BMG, Offenburg, Germany) at 37°C with 1 min agitation before every measurement. Each value was background corrected using the ThT fluorescence of a peptide solution without Aβ(1–42). To investigate the influence of DB1 to DB5 on Aβ fibril formation, a Thioflavin T (ThT) assay was performed. In an aqueous environment the benzothiazole dye has a low fluorescence. […] The emission at 490 nm is directly proportional to the quantity of amyloid fibrils. Fibril formation of Aβ can be followed in real time by measuring the ThT fluorescence. Therefore, the inhibitory effects of the D-peptides DB1 to DB5 and D3 were investigated by co-incubating these peptides with Aβ(1–42) and performing the ThT assay. Fluorescence emission data were compared after 5 h incubation, because after this period the Aβ(1–42) control (without added peptide) reached its fluorescence maximum. […] 20 μM Aβ(1–42) was mixed with 20 μM DB1 to DB5 or 10 μM DB3DB3 and the ThT fluorescence was monitored. Aβ(1–42) without peptide addition was taken as the control. The ThT fluorescence of all samples were compared after 5 h, where the control, Aβ(1–42) only, reached its maximum in fluorescence emission. The Mann-Whitney-U-test was used for statistical analysis. * p < 0.05; ** p < 0.01; *** p < 0.001.

transgenic mice = settings: ref [10], [15], [16], cited from earlier work
From the text: We have previously selected the 12mer all-D-enantiomeric peptide D3 via mirror image phage display. In vitro, D3 binds to amyloid plaques, reduces Aβ aggregation to regular fibrils, eliminates Aβ oligomers and converts preformed fibrils into non-amyloidogenic, non-fibrillar, non-toxic aggregates. In vivo, the plaque load and cerebral inflammation of transgenic mice is reduced after injection of D3 into the brain and cognitive impairment of transgenic mice is improved after oral application. The original phage library, from which D3 was selected, coded ...

## CC[C@@H](C)[C@@H](NC(=O)[C@H]1CCCN1C(=O)[C@H](N)CCCNC(=N)N)C(=O)N[C@@H](C(=O)N[C@H](CCCNC(=N)N)C(=O)N[C@H](CC(C)C)C(=O)N[C@H](CCCNC(=N)N)C(=O)N[C@@H](C(=O)N[C@H](Cc1c[nH]cn1)C(=O)N[C@H](CCC(N)=O)C(=O)N[C@H](CC(N)=O)C(=O)N[C@H](CCCNC(=N)N)C(=O)N[C@H](CCCNC(=N)N)C(=O)N1CCC[C@@H]1C(=O)N[C@@H](C(=O)N[C@@H](C(=O)N[C@H](CCCNC(=N)N)C(=O)N[C@H](CC(C)C)C(=O)N[C@H](CCCNC(=N)N)C(=O)N[C@@H](C(=O)N[C@H](Cc1c[nH]cn1)C(=O)N[C@H](CCC(N)=O)C(=O)N[C@H](CC(N)=O)C(=O)N[C@H](CCCNC(=N)N)C(N)=O)[C@H](C)O)[C@H](C)O)[C@H](C)CC)[C@H](C)O)[C@H](C)O [DB3DB3] (H-[dR][dP][dI][dT][dR][dL][dR][dT][dH][dQ][dN][dR][dR][dP][dI][dT][dR][dL][dR][dT][dH][dQ][dN][dR]-NH2)
PC12 cells
  effect of peptide alone on PC12 cell viability: not toxic
Aβ(1–42) [1]
  EC50: 8 nM and 7 nM
Aβ(1–42) oligomers
  reduction of the content of Aβ oligomers: 82%
[2]; 10 nM DB3DB3 added to 400 nM Aβ, compared to Aβ in the absence of peptide
  disassembly of the Aβ aggregates: 80%
[2]; 400 nM Aβ(1–42) preincubated 22 h at 37°C, then with peptide 22 h (24 h) at 37°C, ELISA, triplicate
  EC50: < 10 nM

## RPITRLHTDRNR [DB1, all-D D3 derivative, C-terminally amidated]
Aβ(1–42) [3]
  inhibition of Aβ(1–42) fibril formation (ThT fluorescence): 63%

## RPITRLQTHEQR [DB5, all-D D3 derivative, C-terminally amidated]
Aβ(1–42) [3]
  inhibition of Aβ(1–42) fibril formation (ThT fluorescence): 76%

## RPITTLQTHQNR [DB2, all-D D3 derivative, C-terminally amidated]
Aβ(1–42) [3]
  inhibition of Aβ(1–42) fibril formation (ThT fluorescence): 49%

## RPRTRLHTHRNR [D3, 12mer all-D-enantiomeric peptide selected via mirror image phage display, C-terminally amidated]
Transgenic mice; injection of D3 into the brain
  plaque load and cerebral inflammation of transgenic mice: reduced
Transgenic mice; oral application
  cognitive impairment of transgenic mice: improved
Aβ(1–42) [3]
  inhibition of Aβ(1–42) fibril formation (ThT fluorescence): 30%

## RPRTRLRTHQNR [DB4, all-D D3 derivative, C-terminally amidated]
Aβ(1–42) [3]
  inhibition of Aβ(1–42) fibril formation (ThT fluorescence): no effect
